Results as given in ChEMBL document CHEMBL5032508, “Synthesis of Fluorescent Probes Targeting Tumor-Suppressor Protein FHIT and Identification of Apoptosis-Inducing FHIT Inhibitors” (J Med Chem, 2021).
Blank lines part the entries; values can stand above or below the compound they belong to. Activity calls are given as the source filed them. The calls are words filed in the database; no cut-off is given here.

Tests used:
[1] = target: Bis(5'-adenosyl)-triphosphatase (Homo sapiens) (UniProt P49789); assay: Inhibition of recombinant human FHIT at 10 uM incubated for 1 hr by fluorescence based analysis relative to control
[2] = target: Bis(5'-adenosyl)-triphosphatase (Homo sapiens) (UniProt P49789); assay: Inhibition of recombinant human FHIT at 100 uM incubated for 1 hr by fluorescence based analysis relative to control
[3] = target: Bis(5'-adenosyl)-triphosphatase (Homo sapiens) (UniProt P49789); assay: Inhibition of recombinant human FHIT assessed as reduction in AP3Aase activity at 50 uM measured after 45 mins by HPLC analysis relative to control
HCC827-Luc [4] = assay: Induction of apoptosis in human HCC827-Luc cells expressing FHIT assessed as reduction in cell viability measured after 24 hrs by CCK-8 assay; assay type: functional, cell-based
NCI-H460-Luc [5] = assay: Induction of apoptosis in human NCI-H460-Luc cells weakly expressing FHIT assessed as reduction in cell viability measured after 24 hrs by CCK-8 assay; assay type: functional, cell-based
HCC827-Luc [6] = assay: Induction of apoptosis in human HCC827-Luc cells assessed as increase in caspase 3/7 activity at 1 uM measured after 24 hrs by confocal fluorescence microscopic analysis; assay type: functional, cell-based
[7] = tested on: COc1ccc(-c2c3ccc(=O)cc-3oc3cc(OCOP(=O)(O)OC[C@H]4O[C@@H](n5ccc(N)nc5=O)[C@H](O)[C@@H]4O)ccc23)c(C)c1; assay: Substrate activity at human recombinant FHIT assessed as Kcat by Michaelis-Menten analysis
[8] = tested on: COc1ccc(-c2c3ccc(=O)cc-3oc3cc(OCOP(=O)(O)OC[C@H]4O[C@@H](n5ccc(=O)[nH]c5=O)[C@H](O)[C@@H]4O)ccc23)c(C)c1; assay: (§1) Substrate activity at human recombinant FHIT assessed as Kcat/Km by Michaelis-Menten analysis
[9] = tested on: COc1ccc(-c2c3ccc(=O)cc-3oc3cc(OCOP(=O)(O)OC[C@H]4O[C@@H](n5cnc6c(=O)[nH]c(N)nc65)[C@H](O)[C@@H]4O)ccc23)c(C)c1; assay: as §1
[10] = tested on: COc1ccc(-c2c3ccc(=O)cc-3oc3cc(OCOP(=O)(O)OC[C@H]4O[C@@H](n5cnc6c(N)ncnc65)[C@H](O)[C@@H]4O)ccc23)c(C)c1; assay: as §1
[11] = tested on: COc1ccc(-c2c3ccc(=O)cc-3oc3cc(OCOP(=O)(O)OC[C@H]4O[C@@H](n5ccc(N)nc5=O)[C@H](O)[C@@H]4O)ccc23)c(C)c1; assay: as §1
[12] = tested on: COc1ccc(-c2c3ccc(=O)cc-3oc3cc(OCOP(=O)(O)OC[C@H]4O[C@@H](n5ccc(N)nc5=O)[C@H](O)[C@@H]4O)ccc23)c(C)c1; assay: Substrate activity at human recombinant FHIT assessed as Km by Michaelis-Menten analysis
HCC827-Luc [13] = assay: Induction of apoptosis in human HCC827-Luc cells assessed as increase in caspase 3/7 activity at 10 uM measured after 24 hrs by confocal fluorescence microscopic analysis; assay type: functional, cell-based
NCI-H460-Luc [14] = assay: Induction of apoptosis in human NCI-H460-Luc cells weakly expressing FHIT cocultured with human HCC827-Luc cells assessed as PI-positive cells at 10 uM incubated for 12 hrs by calcein AM/Hoechst/PI staining based confocal fluorescence microscopic analysis; assay type: functional, cell-based
HCC827-Luc [15] = assay: Induction of apoptosis in human HCC827-Luc cells expressing FHIT cocultured with human NCI-H460-Luc cells assessed as PI-positive cells at 10 uM incubated for 12 hrs by calcein AM/Hoechst/PI staining based confocal fluorescence microscopic analysis; assay type: functional, cell-based
HCC827-Luc [16] = assay: Induction of caspase-mediated apoptosis in human HCC827-Luc cells assessed as reduction in cell viability pretreated with caspase inhibitor Z-VAD-fmk for 1 hr followed by compound addition and measured after 72 hrs by CCK-8 assay; assay type: functional, cell-based
[17] = target: Bis(5'-adenosyl)-triphosphatase (Homo sapiens) (UniProt P49789); assay: Noncompetitive inhibition of human recombinant FHIT assessed as reduction in hydrolysis of TG-CMP at 1 to 9 uM measured for 30 mins by Lineweaver-Burk plot analysis; conditions: dose 1-9 µM

Sequence of Bis(5'-adenosyl)-triphosphatase (Homo sapiens) (P49789 whole entry, looked up): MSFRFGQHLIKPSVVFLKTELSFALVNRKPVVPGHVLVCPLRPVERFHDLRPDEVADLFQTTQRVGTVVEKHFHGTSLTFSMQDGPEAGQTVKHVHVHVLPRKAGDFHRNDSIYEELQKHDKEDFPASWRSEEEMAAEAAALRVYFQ
Sequence of Bis(5'-adenosyl)-triphosphatase (Homo sapiens), P49789 (P49789 whole entry): as the sequence (P49789 whole entry, looked up) above

Compound: CCOC(=O)c1c(C)sc(N)c1C(=O)OCC
inhibition [1]: > 80%

Compound: Cc1c(OCC#N)ccc2c3c(c(=O)oc12)CCCC3
Activity (HCC827-Luc [4]): inactive | Activity (NCI-H460-Luc [5]): inactive

Compound: CN[C@@H]1C[C@H]2O[C@@](C)([C@@H]1OC)n1c3ccccc3c3c4c(c5c6ccccc6n2c5c31)C(=O)NC4
Activity (HCC827-Luc [6]): inactive

Compound: O=C(O)c1ccc(/C=N/NC(=O)c2nc(-c3ccccc3)n(-c3ccccc3)n2)cc1
inhibition [1]: > 80%

Compound: Bis(5'-adenosyl)-triphosphatase (Homo sapiens), P49789
kcat [7]: 0.35 s⁻¹ | kcat/Km [8]: 1830 M⁻¹ s⁻¹ | kcat/Km [9]: 967 M⁻¹ s⁻¹ | kcat/Km [10]: 6330 M⁻¹ s⁻¹ | kcat/Km [11]: 9330 M⁻¹ s⁻¹ | Km [12]: 37 µM

Compound: COCC(=O)N1CC[C@@H]2[C@H]1C(=O)NC[C@H](CCC(=O)OC)N2C
inhibition [1]: > 80%

Compound: Cc1c(OCC(=O)O)ccc2c3c(c(=O)oc12)CCCC3
Activity (HCC827-Luc [4]): inactive | Activity (NCI-H460-Luc [5]): inactive

Compound: Cc1c(OCc2nn[nH]n2)ccc2c3c(c(=O)oc12)CCCC3
Activity (HCC827-Luc [4]): inactive | Activity (NCI-H460-Luc [5]): inactive

Now from value to compound, other results behind:

inhibition [1]: > 80%
Compound: NNC(=O)c1nn(-c2ccccc2)c(=O)cc1O

inhibition [2]: > 50%
Compound: Nc1ncnc2c1ncn2[C@@H]1O[C@H](COP(=O)(O)OP(=O)(O)OP(=O)(O)OP(=O)(O)OC[C@H]2O[C@@H](n3cnc4c(N)ncnc43)[C@H](O)[C@@H]2O)[C@@H](O)[C@H]1O

inhibition [1]: > 80% | inhibition [3]: 95%
Compound: O=C(O)c1ccc2[nH]c(-c3ccnc(-c4cccnc4)c3)nc2c1

inhibition [1]: > 80% | inhibition [3]: 59%
Compound: O=C(Cn1cc([N+](=O)[O-])ccc1=O)NC(=O)NCc1ccco1

inhibition [1]: > 80% | inhibition [3]: 51%
Compound: CN1C(=O)N/C(=C/c2cccn2-c2ccc(C(=O)O)cc2)C1=O

inhibition [2]: > 50%
Compound: Nc1ncnc2c1ncn2[C@@H]1O[C@H](COP(=O)(O)OP(=O)(O)OP(=O)(O)OC[C@H]2O[C@@H](n3cnc4c(N)ncnc43)[C@H](O)[C@@H]2O)[C@@H](O)[C@H]1O

inhibition [17]: Active
Compound: Cc1c(OCC(=O)NO)ccc2c3c(c(=O)oc12)CCCC3
Activity (HCC827-Luc [13]): Active | Activity (NCI-H460-Luc [14]): inactive | Activity (HCC827-Luc [4]): Active | Activity (HCC827-Luc [15]): Active | Activity (HCC827-Luc [16]): inactive | Activity (NCI-H460-Luc [5]): Active

inhibition [1]: > 80% | inhibition [3]: 76%
Compound: Cc1c(OCc2nn[nH]n2)ccc2c3c(c(=O)oc12)CCC(C)C3 (stereo not given)

inhibition [2]: > 50%
Compound: Nc1ncnc2c1ncn2[C@@H]1O[C@H](COP(=O)(O)O)[C@@H](O)[C@H]1O
